Legend:
Format in all cases: in vivo
[1] = tested on: Giant foxtail (Setaria fabergi); assay: Example 23, Procedure II: Antidote Nos. 15 and 17-21 against Herbicide No. 1, 13 days after application
Protocol: (§1) Containers were filled and compacted with a fumigated silt loam top soil to a depth of about 1.3 cm from the top of the container. A first container was designated as an untreated control, a second container was designated as a herbicide control, and a third container was designated as a herbicide + antidote test container. Each of the containers was seeded with a crop species. A measured amount of herbicide dispersed or dissolved in acetone was applied to a measured quantity of soil. To this same quantity of soil treated with herbicide, there was added a measured amount of antidote dispersed or dissolved in acetone. The quantity of soil treated with the herbicide and antidote was thoroughly mixed to incorporate the herbicide and antidote in the soil uniformly. The seed bed in the third container of soil was covered with the soil treated with the herbicide and antidote and the container was leveled. For each test series, the seed beds of the first and second containers were likewise covered by soil layers. the cover layer of the first container was not treated with herbicide or antidote.
(§2) The containers were then placed on a bench in a greenhouse and sub-irrigated as required for the duration of the test. […] Plant response is measured in terms of percent injury. Antidote efficacy is indicated as the difference in plant injury by the herbicide(s) without the antidote and with the antidote.
(§3) This procedure is the same as Procedure I, but modified in the manner that after incorporation of the chemicals (herbicide and antidote) the containers with the covered seedbed were treated with an initial overhead irrigation equivalent to 0.6 cm rainfall, then subsequently sub-irrigated as required on greenhouse benches.
(§4) In other greenhouse tests, using Procedure II described above, the safening efficacy of Antidote Nos. 15 and 17-21 was evaluated against Herbicide No. 1 in corn in the presence of Giant foxtail (Setaria fabergi) and Velvetleaf (Abutilon theophrasti) as representative annual monocotyledonous and dicotyledonous weeds, respectively.
(§5) Test results are shown in Tables 23A and 23B wherein the indicated plant inhibition represents the average of duplicate replications, with observations being made thirteen (13) days after application of the chemicals. Giant foxtail and Velvetleaf are represented by the symbols "GFT" and "VL", respectively. The data in Table 23A show the test results using the antidotes at 2.24 kg/ha, whereas in Table 23B, the antidotal rate was reduced to 0.56 kg/ha.

[2] = tested on: corn; assay: as above; settings: for % Inhibition Corn: 13 days after application
Protocol: as §1, §2, §3, §4, §5

[3] = tested on: velvetleaf (Abutilon theophrasti); assay: as above
Protocol: as §1, §2, §3, §4, §5

[4] = tested on: corn; assay: Example 24, Procedure II: Herbicide No. 1 + co-herbicides Nos. 4, 6, 7, 12 with Antidote Nos. 15 and 17-21
Procedure, shortened: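 Greenhouse pots, herbicide No. 1 plus co-herbicides and antidote in acetone incorporated into silt loam soil covering the corn seed bed, with giant foxtail and velvetleaf; initial overhead irrigation equal to 0.6 cm rainfall, then sub-irrigation. Antidote at 2.24 kg/ha; percent injury read 13 days after application, duplicate average.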

[5] = Table 23A, Herb. No. 1 0.14 Kg/Ha + antidote 2.24 Kg/ha
[6] = Table 23A, Herb. No. 1 0.28 Kg/Ha + antidote 2.24 Kg/ha
[7] = Table 23A, Herb. No. 1 0.56 Kg/Ha + antidote 2.24 Kg/ha
[8] = Table 23A, Herb. No. 1 1.12 Kg/Ha + antidote 2.24 Kg/ha
[9] = Table 23B, Herb. No. 1 0.14 Kg/Ha + antidote 0.56 Kg/ha
[10] = Table 23B, Herb. No. 1 0.28 Kg/Ha + antidote 0.56 Kg/ha
[11] = Table 23B, Herb. No. 1 0.56 Kg/Ha + antidote 0.56 Kg/ha
[12] = Table 23B, Herb. No. 1 1.12 Kg/Ha + antidote 0.56 Kg/ha
[13] = Herb. No. 1 0.07 Kg/ha + Co-Herb. No. 4 1.12 Kg/ha + antidote 2.24 Kg/ha
[14] = Herb. No. 1 0.07 Kg/ha + Co-Herb. No. 6 0.14 Kg/ha + antidote 2.24 Kg/ha
[15] = Herb. No. 1 0.07 Kg/ha + Co-Herb. No. 7 0.28 Kg/ha + antidote 2.24 Kg/ha
[16] = Herb. No. 1 0.07 Kg/ha + Co-Herb. No. 12 0.28 Kg/ha + antidote 2.24 Kg/ha
[17] = Herb. No. 1 0.14 Kg/ha + Co-Herb. No. 4 1.12 Kg/ha + antidote 2.24 Kg/ha
[18] = Herb. No. 1 0.14 Kg/ha + Co-Herb. No. 6 0.14 Kg/ha + antidote 2.24 Kg/ha
[19] = Herb. No. 1 0.14 Kg/ha + Co-Herb. No. 7 0.28 Kg/ha + antidote 2.24 Kg/ha
[20] = Herb. No. 1 0.14 Kg/ha + Co-Herb. No. 12 0.28 Kg/ha + antidote 2.24 Kg/ha
[21] = Herb. No. 1 0.28 Kg/ha + Co-Herb. No. 4 1.12 Kg/ha + antidote 2.24 Kg/ha
[22] = Herb. No. 1 0.28 Kg/ha + Co-Herb. No. 6 0.14 Kg/ha + antidote 2.24 Kg/ha
[23] = Herb. No. 1 0.28 Kg/ha + Co-Herb. No. 7 0.28 Kg/ha + antidote 2.24 Kg/ha
[24] = Herb. No. 1 0.28 Kg/ha + Co-Herb. No. 12 0.28 Kg/ha + antidote 2.24 Kg/ha
[25] = Herb. No. 1 0.56 Kg/ha + Co-Herb. No. 4 1.12 Kg/ha + antidote 2.24 Kg/ha
[26] = Herb. No. 1 0.56 Kg/ha + Co-Herb. No. 6 0.14 Kg/ha + antidote 2.24 Kg/ha
[27] = Herb. No. 1 0.56 Kg/ha + Co-Herb. No. 7 0.28 Kg/ha + antidote 2.24 Kg/ha
[28] = Herb. No. 1 0.56 Kg/ha + Co-Herb. No. 12 0.28 Kg/ha + antidote 2.24 Kg/ha

## CC1COc2ccccc2N1C(=O)C(Cl)Cl (stereo not shown) [compound 17]
[1]; [5]
  % Inhibition GFT: 25%
[1]; [6]
  % Inhibition GFT: 25%
[1]; [7]
  % Inhibition GFT: 60%
[1]; [8]
  % Inhibition GFT: 70%
[1]; [9]
  % Inhibition GFT: 15%
[1]; [10]
  % Inhibition GFT: 40%
[1]; [11]
  % Inhibition GFT: 55%
[1]; [12]
  % Inhibition GFT: 65%
[2]; [5]
  % Inhibition Corn: 0%
[2]; [6]
  % Inhibition Corn: 0%
[2]; [7]
  % Inhibition Corn: 15%
[2]; [8]
  % Inhibition Corn: 25%
[2]; [9]
  % Inhibition Corn: 0%
[2]; [10]
  % Inhibition Corn: 10%
[2]; [11]
  % Inhibition Corn: 20%
[2]; [12]
  % Inhibition Corn: 30%
[3]; [5]
  % Inhibition VL: 95%
[3]; [6]
  % Inhibition VL: 85%
[3]; [7]
  % Inhibition VL: 95%
[3]; [8]
  % Inhibition VL: 95%
[3]; [9]
  % Inhibition VL: 90%
[3]; [10]
  % Inhibition VL: 90%
[3]; [11]
  % Inhibition VL: 90%
[3]; [12]
  % Inhibition VL: 95%
[4]; [13]
  % Inhibition Corn: 0%
[4]; [14]
  % Inhibition Corn: 5%
[4]; [15]
  % Inhibition Corn: 0%
[4]; [16]
  % Inhibition Corn: 5%
[4]; [17]
  % Inhibition Corn: 0%
[4]; [18]
  % Inhibition Corn: 0%
[4]; [19]
  % Inhibition Corn: 0%
[4]; [20]
  % Inhibition Corn: 5%
[4]; [21]
  % Inhibition Corn: 5%
[4]; [22]
  % Inhibition Corn: 15%
[4]; [23]
  % Inhibition Corn: 5%
[4]; [24]
  % Inhibition Corn: 5%
[4]; [25]
  % Inhibition Corn: 20%
[4]; [26]
  % Inhibition Corn: 15%
[4]; [27]
  % Inhibition Corn: 15%
[4]; [28]
  % Inhibition Corn: 20%

## O=C(O)COC(c1ccccc1)c1ccccc1 [compound 19]
[1]; [5]
  % Inhibition GFT: 15%
[1]; [6]
  % Inhibition GFT: 30%
[1]; [7]
  % Inhibition GFT: 50%
[1]; [8]
  % Inhibition GFT: 70%
[1]; [9]
  % Inhibition GFT: 25%
[1]; [10]
  % Inhibition GFT: 40%
[1]; [11]
  % Inhibition GFT: 60%
[1]; [12]
  % Inhibition GFT: 65%
[2]; [5]
  % Inhibition Corn: 0%
[2]; [6]
  % Inhibition Corn: 0%
[2]; [7]
  % Inhibition Corn: 5%
[2]; [8]
  % Inhibition Corn: 15%
[2]; [9]
  % Inhibition Corn: 0%
[2]; [10]
  % Inhibition Corn: 5%
[2]; [11]
  % Inhibition Corn: 15%
[2]; [12]
  % Inhibition Corn: 40%
[3]; [5]
  % Inhibition VL: 90%
[3]; [6]
  % Inhibition VL: 85%
[3]; [7]
  % Inhibition VL: 95%
[3]; [8]
  % Inhibition VL: 95%
[3]; [9]
  % Inhibition VL: 85%
[3]; [10]
  % Inhibition VL: 85%
[3]; [11]
  % Inhibition VL: 90%
[3]; [12]
  % Inhibition VL: 90%
[4]; [13]
  % Inhibition Corn: 0%
[4]; [14]
  % Inhibition Corn: 0%
[4]; [15]
  % Inhibition Corn: 0%
[4]; [16]
  % Inhibition Corn: 0%
[4]; [17]
  % Inhibition Corn: 0%
[4]; [18]
  % Inhibition Corn: 0%
[4]; [19]
  % Inhibition Corn: 0%
[4]; [20]
  % Inhibition Corn: 0%
[4]; [21]
  % Inhibition Corn: 5%
[4]; [22]
  % Inhibition Corn: 5%
[4]; [23]
  % Inhibition Corn: 5%
[4]; [24]
  % Inhibition Corn: 5%
[4]; [25]
  % Inhibition Corn: 5%
[4]; [26]
  % Inhibition Corn: 10%
[4]; [27]
  % Inhibition Corn: 10%
[4]; [28]
  % Inhibition Corn: 20%

## COC(=O)COC(c1ccccc1)c1ccccc1 [compound 20]
[1]; [5]
  % Inhibition GFT: 15%
[1]; [6]
  % Inhibition GFT: 35%
[1]; [7]
  % Inhibition GFT: 40%
[1]; [8]
  % Inhibition GFT: 65%
[1]; [9]
  % Inhibition GFT: 15%
[1]; [10]
  % Inhibition GFT: 20%
[1]; [11]
  % Inhibition GFT: 60%
[1]; [12]
  % Inhibition GFT: 75%
[2]; [5]
  % Inhibition Corn: 0%
[2]; [6]
  % Inhibition Corn: 0%
[2]; [7]
  % Inhibition Corn: 0%
[2]; [8]
  % Inhibition Corn: 15%
[2]; [9]
  % Inhibition Corn: 0%
[2]; [10]
  % Inhibition Corn: 5%
[2]; [11]
  % Inhibition Corn: 20%
[2]; [12]
  % Inhibition Corn: 40%
[3]; [5]
  % Inhibition VL: 90%
[3]; [6]
  % Inhibition VL: 90%
[3]; [7]
  % Inhibition VL: 85%
[3]; [8]
  % Inhibition VL: 90%
[3]; [9]
  % Inhibition VL: 90%
[3]; [10]
  % Inhibition VL: 90%
[3]; [11]
  % Inhibition VL: 90%
[3]; [12]
  % Inhibition VL: 95%
[4]; [13]
  % Inhibition Corn: 0%
[4]; [14]
  % Inhibition Corn: 0%
[4]; [15]
  % Inhibition Corn: 0%
[4]; [16]
  % Inhibition Corn: 0%
[4]; [17]
  % Inhibition Corn: 0%
[4]; [18]
  % Inhibition Corn: 5%
[4]; [19]
  % Inhibition Corn: 0%
[4]; [20]
  % Inhibition Corn: 5%
[4]; [21]
  % Inhibition Corn: 0%
[4]; [22]
  % Inhibition Corn: 5%
[4]; [23]
  % Inhibition Corn: 0%
[4]; [24]
  % Inhibition Corn: 5%
[4]; [25]
  % Inhibition Corn: 10%
[4]; [26]
  % Inhibition Corn: 20%
[4]; [27]
  % Inhibition Corn: 5%
[4]; [28]
  % Inhibition Corn: 10%

## CC1(C)OC(c2ccco2)CN1C(=O)C(Cl)Cl (stereo not shown) [Antidote No. 15, Oxazolidine, 3-(dichloroacetyl)-5-(2-furanyl)-2,2-dimethyl]
[2]; Herbicide No. 1, Tables 23A and 23B
  safening of corn, assessment in words: greatly safened corn against the herbicide at all test rates
